Measured values published in patent US20160333006A1, “ARYL LACTA KINASE INHIBITORS” (Bristol-Myers Squibb Company, priority 2014, published 2016).

Experiments:
[1] = tested on: mice; assay: formalin paw test; assay type: in vivo, mouse
Protocol: AAK1 homozygous (−/−) and their wild-type (+/+) littermates were tested using the formalin paw test in order to assess their acute and tonic nociceptive responses. For these tests, Automatic Nociception Analyzers (purchased from the Ozaki lab at University of California, San Diego) were used. A metal band was placed around the left hind paw of each mouse 30 minutes prior to testing. After the 30-minute acclimation period, 20 μl of 5% formalin is subcutaneously injected in the dorsal surface of the left hind paw. Mice were individually housed in cylindrical chambers for 45 minutes. Fresh 5% formalin solution was prepared by diluting formaldehyde (Formalde-fresh 20%, Fisher Scientific, Fair Lawn, N.J.) with distilled water. Investigatory compounds were administered 30 minutes prior to formalin injection.
A computer recorded flinches per minute, total flinches for phase I (acute phase=first 8 minutes), and total flinches for phase II (tonic phase=time between minutes 20-40) through an electromagnetic field. See Yaksh T L, Ozaki G, McCumber D, Rathbun M, Svensson C, Malkmus S, Yaksh M C. An automated flinch detecting system for use in the formalin nociceptive bioassay. J Appl Physiol., 2001; 90:2386-402.
The same test was used to confirm that the administration of an AAK1 inhibitor can also affect pain response.
A compound of the disclosure was tested in this assay at different doses. Gabapentin and pregabalin were used as positive controls. Results are shown below in Table 2, wherein the effect of gabapentin at 200 mg/kg is considered a 100% response, the % response for the other compounds is relative to the 200 mg/kg dose of gabapentin, “sc” means subcutaneous administration; “po” means oral administration.

[2] = biological target: T1, AAK1 (full length human) in HEK293F cells (Homo sapiens, UniProt Q2M2I8); assay: HEK281 cell-based assay (phospho-mu2 Western blot in transfected HEK293F cells); conditions: 3 hours
T1 construct: fused on or other part: HA tag (AAK1/HA in pIRES vector)
Protocol: On day one, cells were plated on a 10 cm dish so that they are ˜80% confluent at time oftransfection. Roughly 12 million cells were in a 10 cm dish at time of transfection. […] The DNA was comprised of a mixture (per 10 cm dish) containing 3 ug AAK1/HA/pIRES (full length human, NCBI accession no. NP_055726.2), 45 μg Flag/AP2MI/pcDNA (full length human), and 1.5 ml OPTI-MEM. The Lipofectamine 2000 is made up of a mixture (per 10 cm dish) containing 144 μl Lipofectamine 2000 and 1.5 ml OPTI-MEM. Each mixture was transferred to individual 15 ml tubes and incubated at RT for 5 minutes, and then the two mixes were combined and incubated at RT for 20 minutes. Growth media was then aspirated from each 10 cm plate and replaced with 10 ml of DMEM+10% FBS (no GPS). Finally, 3 ml DNA/Lipofectamine mix was added to each 10 cm dish and mix gently followed by incubate of plate overnight at 37° C. and 5% CO2.
On day three, compounds were diluted in 100% DMSO at 1000× final concentration, followed by 3-fold serial dilutions for a total of 5 concentrations tested. Four compounds were tested per 10 cm dish. One ul of each compound dilution was then pipetted into a deep-well, 96-well plate, followed by addition of 500 μl DMEM+0.5% FBS into each well for a 2× final concentration of each compound. Cells were resuspended in a 10 cm dish by simple pipetting (HEK293 cells come off the plate that easy at this point) and then transferred to a 50 ml conical tube and pelleted by centrifugation at 1000 rpm for 5 min. Cell pellets were then resuspended in 2.75 ml DMEM+0.5% FBS per 10 cm dish and 100 μl of cell suspension transferred into each well of 96-well TC plate. Finally, 100 μl of 2× compound diluted in DMEM+0.5% FBS was then added into wells containing cell suspension for a 1× final concentration. Plates were then incubated at 37° C. and 5% CO2 for 3 hours followed by transferring of cell suspensions from each well into 12-tube PCR strips. The PCR strips were spun in a tip rack at 1000 rpm for 5 minutes to pellet cells and media was then removed by pipetting without disturbing the cell pellet.
Five ul of 10× NuPage Sample Reducing Agent (with 50 mM DTT) was to each sample followed by heat denaturing at 70 C for 10 min on PCR machine. […] For controls, 2 ng of phospho-mu2 or 20 ng mu2/Flag proteins were loaded in the last well of each gel. After SDS-PAGE, samples on each gel were transferred to PVDF membrane using an iBlot and membranes were blocked for one hour in TBST+5% milk, followed by wash 3× for 5-10 min with TBST.
Finally, the camera was set up to take a picture every 30 seconds for 10 minutes and the best image saved for each blot with no saturated signal (when the signal is saturated, the bands will be highlighted red). A volume analysis on each band was performed to obtain density values. Percent inhibition was calculated for each sample by first normalizing to total Mu2 expression levels and then comparing to 0% and 100% controls. IC50 values were then calculated using Excel fitting software.

[3] = biological target: T2, GST-Xa-hAAK1 (Homo sapiens, UniProt Q2M2I8); assay: AAK1 kinase assay; assay type: biochemical; conditions: ATP 22 μM
T2 construct: made in house
Protocol: The assays were performed in U-bottom 384-well plates. […] The reactions were initiated by the combination of bacterially expressed, GST-Xa-hAAK1 with substrates and test compounds. The reactions were incubated at room temperature for 3 hours and terminated by adding 60 μl of 35 mM EDTA buffer to each sample. The reactions were analyzed on the Caliper LabChip 3000 (Caliper, Hopkinton, Mass.) by electrophoretic separation of the fluorescent substrate and phosphorylated product. […] Compounds were dissolved at 10 mM in dimethylsulfoxide (DMSO) and evaluated at eleven concentrations. IC50 values were derived by non-linear regression analysis.

[4] = phospho-mu2, given as IC50 range
[5] = 50 mg/kg sc, relative to gabapentin 200 mg/kg = 100% response

T2 sequence (Q2M2I8 whole entry): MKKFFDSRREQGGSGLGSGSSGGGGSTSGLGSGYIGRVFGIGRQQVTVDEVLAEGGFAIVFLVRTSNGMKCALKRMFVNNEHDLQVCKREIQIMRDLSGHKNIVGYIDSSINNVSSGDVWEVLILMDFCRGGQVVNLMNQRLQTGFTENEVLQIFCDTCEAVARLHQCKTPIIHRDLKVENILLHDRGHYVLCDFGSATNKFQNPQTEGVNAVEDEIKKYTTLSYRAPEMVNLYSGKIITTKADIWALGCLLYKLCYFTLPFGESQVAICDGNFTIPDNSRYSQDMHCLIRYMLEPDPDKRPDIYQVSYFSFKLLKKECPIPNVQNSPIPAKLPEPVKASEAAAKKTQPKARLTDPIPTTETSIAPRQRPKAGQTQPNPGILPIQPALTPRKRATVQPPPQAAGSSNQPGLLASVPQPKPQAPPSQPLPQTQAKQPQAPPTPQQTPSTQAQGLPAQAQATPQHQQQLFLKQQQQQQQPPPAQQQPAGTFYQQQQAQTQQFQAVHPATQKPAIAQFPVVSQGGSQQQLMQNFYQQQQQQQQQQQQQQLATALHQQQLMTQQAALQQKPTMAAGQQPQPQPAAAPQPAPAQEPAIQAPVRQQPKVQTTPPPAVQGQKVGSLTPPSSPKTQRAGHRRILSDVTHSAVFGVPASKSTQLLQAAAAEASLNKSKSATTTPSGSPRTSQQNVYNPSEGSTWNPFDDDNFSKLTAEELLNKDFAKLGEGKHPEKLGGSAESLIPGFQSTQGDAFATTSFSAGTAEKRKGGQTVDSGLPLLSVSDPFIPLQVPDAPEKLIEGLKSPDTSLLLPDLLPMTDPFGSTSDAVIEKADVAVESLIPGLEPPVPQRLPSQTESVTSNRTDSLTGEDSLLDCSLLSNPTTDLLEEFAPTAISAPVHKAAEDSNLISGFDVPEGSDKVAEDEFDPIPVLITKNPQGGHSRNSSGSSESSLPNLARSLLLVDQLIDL
T1 sequence (Q2M2I8 1-822 limits assumed): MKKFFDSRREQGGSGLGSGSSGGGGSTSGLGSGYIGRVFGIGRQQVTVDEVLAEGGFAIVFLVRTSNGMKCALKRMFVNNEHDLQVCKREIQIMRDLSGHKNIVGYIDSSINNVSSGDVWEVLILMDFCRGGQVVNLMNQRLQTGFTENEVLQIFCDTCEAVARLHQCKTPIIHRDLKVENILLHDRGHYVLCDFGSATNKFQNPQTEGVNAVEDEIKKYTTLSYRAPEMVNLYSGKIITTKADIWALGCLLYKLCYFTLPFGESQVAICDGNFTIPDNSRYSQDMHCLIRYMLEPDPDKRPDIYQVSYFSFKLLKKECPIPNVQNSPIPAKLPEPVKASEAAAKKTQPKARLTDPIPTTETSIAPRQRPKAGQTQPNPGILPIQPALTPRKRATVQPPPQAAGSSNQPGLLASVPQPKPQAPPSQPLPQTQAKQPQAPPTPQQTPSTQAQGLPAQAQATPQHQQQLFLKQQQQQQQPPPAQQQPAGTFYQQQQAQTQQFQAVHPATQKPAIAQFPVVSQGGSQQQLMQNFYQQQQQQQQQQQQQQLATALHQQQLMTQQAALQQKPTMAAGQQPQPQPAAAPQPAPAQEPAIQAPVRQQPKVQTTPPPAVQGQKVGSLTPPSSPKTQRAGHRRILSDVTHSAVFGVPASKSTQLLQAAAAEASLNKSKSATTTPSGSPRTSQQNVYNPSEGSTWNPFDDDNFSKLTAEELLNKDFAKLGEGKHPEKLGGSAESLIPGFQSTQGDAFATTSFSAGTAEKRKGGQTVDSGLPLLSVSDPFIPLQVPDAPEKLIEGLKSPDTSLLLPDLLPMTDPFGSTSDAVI

Row | Structure (SMILES) | IC50 [2, 4] [nM] | IC50 ([3]; given as IC50 range) [nM] | further results
1 | CC(C)C[C@H](N)COc1cc2c(cc1F)c1ccncc1c(=O)n2C [Example 14, (S)-8-((2-amino-4-methylpentyl)oxy)-9-fluoro-6-methylbenzo[c][2,7]naphthyridin-5(6H)-one] | – | – | Response ([1]; 30 mg/kg po, relative to gabapentin 200 mg/kg = 100% response): 62%
2 | Cc1nccc2c1c(=O)n(C)c1cc(OC[C@H](N)CC(C)C)c(Br)cc21 [Example 133, (R)-8-((2-amino-4-methylpentyl)oxy)-9-bromo-4,6-dimethylbenzo[c][2,7]naphthyridin-5(6H)-one] | – | – | IC50 ([2]; phospho-mu2 normalized to total Mu2): 2.3 nM; IC50 ([3]; 3 hours at room temperature): 0.4 nM
3 | Cn1c(=O)c2cnccc2c2cc(Br)c(OCC(N)CC(F)(F)F)cc21 (stereo not drawn) [Example 140, 8-(2-amino-4,4,4-trifluorobutoxy)-9-bromo-6-methylbenzo[c][2,7]naphthyridin-5(6H)-one] | 10 to 100 | 1 to 10 | –
4 | Cn1c(=O)c2cnccc2c2cc(Cl)c(OCC(N)CC(F)(F)F)cc21 (stereo not drawn) [Example 141, 8-(2-amino-4,4,4-trifluorobutoxy)-9-chloro-6-methylbenzo[c][2,7]naphthyridin-5(6H)-one] | 10 to 100 | 1 to 10 | –
5 | CC(C)C[C@H](N)COc1cc2[nH]c(=O)c3cnccc3c2cc1Cl [Example 142, (S)-8-((2-amino-4-methylpentyl)oxy)-9-chlorobenzo[c][2,7]naphthyridin-5(6H)-one] | 1 to 10 | < 1 | –
6 | Cc1nccc2c1c(=O)n(CCO)c1cc(OC[C@@H](N)CC(C)C)c(Br)cc21 [Example 143, (S)-8-((2-amino-4-methylpentyl)oxy)-9-bromo-6-(2-hydroxyethyl)-4-methylbenzo[c][2,7]naphthyridin-5(6H)-one] | 1 to 10 | 1 to 10 | –
7 | CNC(=O)Nc1nccc2c1c(=O)n(C)c1cc(OC[C@@H](N)CC(C)C)c(F)cc21 [Example 145, (S)-1-(8-((2-amino-4-methylpentyl)oxy)-9-fluoro-6-methyl-5-oxo-5,6-dihydrobenzo[c][2,7]naphthyridin-4-yl)-3-methylurea] | 10 to 100 | 10 to 100 | –
8 | CC(C)NCC(O)COc1cc2c(cc1Br)c1ccncc1c(=O)n2C (stereo not drawn) [Example 148, 9-bromo-8-(2-hydroxy-3-(isopropylamino)propoxy)-6-methylbenzo[c][2,7]naphthyridin-5(6H)-one] | 100 to 2000 | 100 to 2000 | –
9 | NCC1(CC(=O)O)CCCCC1 [Gabapentin] | – | – | Response [1, 5]: 60%; Response ([1]; 200 mg/kg sc, considered a 100% response): 100%
10 | CC(C)C[C@H](CN)CC(=O)O [Pregabalin, pregabalin] | – | – | Response [1, 5]: 90%
